Entries after “also recorded” stand apart in the source; their conditions may differ. Read-outs that look alike come from different tables or passages of the source. One block for each compound: values may come before it.
Tests used:
[1] = molecular target: Avpr1a vasopressin receptor; details: ref Frantz et al., 2010, cited from earlier work
[2] = molecular target: T1, OXTR (β-arrestin recruitment) (Homo sapiens, UniProt P30559); format: cell-based
T1 sequence (P30559 1-389): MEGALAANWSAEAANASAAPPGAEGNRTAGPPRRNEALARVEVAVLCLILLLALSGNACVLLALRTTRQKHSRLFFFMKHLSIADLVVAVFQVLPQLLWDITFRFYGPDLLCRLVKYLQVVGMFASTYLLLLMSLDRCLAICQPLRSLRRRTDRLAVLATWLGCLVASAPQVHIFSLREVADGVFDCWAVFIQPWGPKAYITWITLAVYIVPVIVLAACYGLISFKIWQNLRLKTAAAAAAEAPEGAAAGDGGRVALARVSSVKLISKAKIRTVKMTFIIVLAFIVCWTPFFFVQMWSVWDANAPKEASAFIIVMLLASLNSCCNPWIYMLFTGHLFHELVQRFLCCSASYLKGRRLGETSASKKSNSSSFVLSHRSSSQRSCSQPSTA

[3] = system: human Avpr2 vasopressin receptor; assay: Calcium mobilization assay, CHO-V2; format: cell-based; details: Supplemental Fig. 1
wild-type CHO cells = assay: Calcium response in wild-type CHO cells; format: cell-based; details: Supplemental Fig. 2
other human receptors = assay: NIMH PDSP GPCR receptor binding screen, other receptors; details: complete set of GPCRs available through NIMH PDSP
human OXTR = molecular target: T2, human OXTR (Homo sapiens, UniProt P30559); assay: IP3 accumulation assay; format: cell-based
T2 sequence (P30559 1-389): T1 sequence (P30559 1-389)

BALB/cByJ mice [4] = assay: Three-chamber social choice test after subchronic regimen; format: in vivo, mouse
[5] = system: human Avpr1a vasopressin receptor; assay: Calcium mobilization assay, CHO-V1a; format: cell-based; details: Supplemental Fig. 1
[6] = molecular target: T3, muscarinic acetylcholine receptor M4 (Homo sapiens, UniProt P08173); assay: NIMH PDSP GPCR receptor binding screen, M4
T3 sequence (P08173 1-479): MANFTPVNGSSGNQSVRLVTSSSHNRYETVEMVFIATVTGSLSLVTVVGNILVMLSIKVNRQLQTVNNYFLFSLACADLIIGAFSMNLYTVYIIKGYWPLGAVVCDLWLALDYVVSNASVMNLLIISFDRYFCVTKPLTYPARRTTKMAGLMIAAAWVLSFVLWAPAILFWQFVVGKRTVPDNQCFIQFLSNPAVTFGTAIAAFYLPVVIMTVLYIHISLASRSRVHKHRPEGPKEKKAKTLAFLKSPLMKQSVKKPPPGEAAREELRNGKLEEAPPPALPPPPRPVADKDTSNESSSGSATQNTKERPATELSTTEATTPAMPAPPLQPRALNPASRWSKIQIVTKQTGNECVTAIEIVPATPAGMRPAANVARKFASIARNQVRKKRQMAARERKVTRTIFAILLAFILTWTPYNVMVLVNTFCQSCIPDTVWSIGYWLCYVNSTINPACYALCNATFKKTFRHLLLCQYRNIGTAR

[7] = molecular target: T4, muscarinic acetylcholine receptor M2 (Homo sapiens, UniProt P08172); assay: NIMH PDSP GPCR receptor binding screen, M2
T4 sequence (P08172 1-466): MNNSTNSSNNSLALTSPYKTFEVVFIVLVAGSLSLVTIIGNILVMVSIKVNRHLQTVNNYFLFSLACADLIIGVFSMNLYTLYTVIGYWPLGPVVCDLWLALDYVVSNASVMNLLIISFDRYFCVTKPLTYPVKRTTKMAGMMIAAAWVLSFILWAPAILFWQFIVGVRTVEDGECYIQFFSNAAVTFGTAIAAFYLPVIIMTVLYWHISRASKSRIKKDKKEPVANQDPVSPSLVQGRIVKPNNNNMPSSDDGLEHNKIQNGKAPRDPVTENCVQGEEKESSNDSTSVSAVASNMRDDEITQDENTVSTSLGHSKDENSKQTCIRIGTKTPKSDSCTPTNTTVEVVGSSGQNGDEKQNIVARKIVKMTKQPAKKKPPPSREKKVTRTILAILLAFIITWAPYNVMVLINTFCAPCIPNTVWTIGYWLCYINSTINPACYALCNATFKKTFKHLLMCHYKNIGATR

[8] = molecular target: muscarinic acetylcholine receptor M3 (Homo sapiens, UniProt P20309); assay: NIMH PDSP GPCR receptor binding screen, M3
muscarinic acetylcholine receptor M3, sequence (P20309 whole entry): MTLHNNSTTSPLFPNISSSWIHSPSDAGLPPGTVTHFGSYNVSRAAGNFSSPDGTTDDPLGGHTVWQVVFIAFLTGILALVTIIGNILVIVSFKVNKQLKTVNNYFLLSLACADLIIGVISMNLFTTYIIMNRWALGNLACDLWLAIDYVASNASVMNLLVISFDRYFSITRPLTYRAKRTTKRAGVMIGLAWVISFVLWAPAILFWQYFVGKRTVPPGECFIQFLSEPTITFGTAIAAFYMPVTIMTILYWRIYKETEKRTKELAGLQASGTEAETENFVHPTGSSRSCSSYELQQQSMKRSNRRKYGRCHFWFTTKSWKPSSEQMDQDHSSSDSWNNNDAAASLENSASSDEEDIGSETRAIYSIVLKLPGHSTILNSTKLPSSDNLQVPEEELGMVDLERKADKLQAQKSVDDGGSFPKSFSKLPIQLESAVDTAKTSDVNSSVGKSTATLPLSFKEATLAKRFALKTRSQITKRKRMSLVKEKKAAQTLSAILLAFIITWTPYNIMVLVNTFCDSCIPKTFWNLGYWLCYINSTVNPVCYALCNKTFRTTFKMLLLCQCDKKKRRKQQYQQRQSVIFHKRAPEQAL

[9] = molecular target: T5, muscarinic acetylcholine receptor M5 (Homo sapiens, UniProt P08912); assay: NIMH PDSP GPCR receptor binding screen, M5
T5 sequence (P08912 1-532): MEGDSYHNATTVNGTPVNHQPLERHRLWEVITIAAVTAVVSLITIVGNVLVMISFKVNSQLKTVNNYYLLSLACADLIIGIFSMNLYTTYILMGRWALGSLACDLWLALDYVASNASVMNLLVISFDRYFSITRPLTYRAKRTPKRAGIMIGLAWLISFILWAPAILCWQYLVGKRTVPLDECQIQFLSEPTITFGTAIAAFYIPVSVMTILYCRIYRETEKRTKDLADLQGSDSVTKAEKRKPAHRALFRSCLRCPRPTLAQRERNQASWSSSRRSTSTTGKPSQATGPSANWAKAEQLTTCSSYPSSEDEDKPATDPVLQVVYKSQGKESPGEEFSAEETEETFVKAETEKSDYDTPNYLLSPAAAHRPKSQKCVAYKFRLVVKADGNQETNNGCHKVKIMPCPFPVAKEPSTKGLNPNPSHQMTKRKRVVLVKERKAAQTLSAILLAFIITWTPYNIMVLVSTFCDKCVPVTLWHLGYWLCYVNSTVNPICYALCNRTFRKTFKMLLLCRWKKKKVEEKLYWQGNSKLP

[10] = molecular target: T6, human oxytocin receptor (OXTR) (Homo sapiens, UniProt P30559); assay: Fluorescence-based intracellular calcium mobilization assay; format: cell-based
T6 sequence (P30559 1-389): T1 sequence (P30559 1-389)

OXTR [11] = details: ref Pitt et al., 2004, cited from earlier work
[12] = molecular target: T1, OXTR (β-arrestin recruitment); assay: PathHunter eXpress β-Arrestin GPCR Kit, enzyme fragment complementation assay; format: cell-based
OXTR [13] = details: ref Pitt et al., 2004, cited from earlier work; remark: listed apart in the source
[14] = molecular target: T7, human Avpr1b vasopressin receptor (Homo sapiens, UniProt P47901); assay: Calcium mobilization assay, CHO-V1b; format: cell-based
T7 sequence (P47901 1-424): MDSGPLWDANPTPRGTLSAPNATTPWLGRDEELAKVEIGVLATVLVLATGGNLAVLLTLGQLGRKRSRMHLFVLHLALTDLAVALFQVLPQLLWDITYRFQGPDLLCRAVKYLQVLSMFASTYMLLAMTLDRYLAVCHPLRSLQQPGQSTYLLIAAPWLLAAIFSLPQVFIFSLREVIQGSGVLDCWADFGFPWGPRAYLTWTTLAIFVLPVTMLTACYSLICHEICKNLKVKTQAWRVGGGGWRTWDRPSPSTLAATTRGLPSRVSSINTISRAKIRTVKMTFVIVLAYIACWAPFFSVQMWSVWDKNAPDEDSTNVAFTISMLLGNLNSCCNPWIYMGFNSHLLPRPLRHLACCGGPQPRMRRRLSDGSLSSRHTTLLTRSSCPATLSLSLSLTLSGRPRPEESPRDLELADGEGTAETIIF

BALB/cByJ mice [15] = assay: Marble-burying assay, BALB/cByJ; format: in vivo, mouse; details: for digging responses in marble-burying assay, oxytocin metabolites: acute IP, Supplemental Fig. 3B, C
rodents = details: ref Ring and colleagues 2006, 2010; cited from earlier work
rats [16] = details: ref de Wied et al., 1987; cited from earlier work
rats [17] = details: dependent on dose; ref Popik et al., 1996; cited from earlier work
BALB/cByJ mice [18] = assay: Open field test for activity and exploration; format: in vivo, mouse

EC50 [2]: 310 ± 260 nM
Efficacy (% OXT Response), DiscoveRx β-Arrestin ([2]; oxytocin response as 100%): 51 ± 6%
EC50 (human OXTR): 890 ± 90 nM
Emax (human OXTR; read-out: maximum efficacy, IP3 accumulation): 67 ± 4%
activation of human Avpr1a ([5]; CHO-V1a): did not activate the human Avpr1a
Ki [6]: > 1000 nM
Ki [7]: > 1000 nM
Ki [8]: > 1000 nM
Ki [9]: > 1000 nM
Efficacy (% OXT Response), FLIPR TETRA Ca2+ Release ([10]; Table 1, oxytocin response as 100%): 102%
EC50 [12]: 480 nM
Efficacy (% OXT Response), DiscoveRx Express β-Arrestin ([12]; oxytocin response as 100%, run as single points only): 48%
EC50 [14]: 4300 ± 70 nM
efficacy at human Avpr1b ([14]; compared to vasopressin): 74 ± 2%
Compound: Cc1cc(C(=O)N2Cc3cnn(C)c3Nc3ccccc32)ccc1CNC(=O)N1CCC[C@H]1C(=S)N1CCCN(C)CC1 [TC-OT-39, (2S)-N-[[4-[(4,10-Dihydro-1-methylpyrazolo[3,4-b][1,5]benzodiazepin-5(1H)-yl)carbonyl]-2-methylphenyl]methyl]-2-[(hexahydro-4-methyl-1H-1,4-diazepin-1-yl)thioxomethyl]-1-pyrrolidinecarboxamide]
Ki ([1]; read-out: KI at Avpr1a, antagonist): 330 nM
character at Avpr1a [1]: antagonist of the Avpr1a vasopressin receptor
activation of human Avpr2 [3]: did not activate the human Avpr1a or Avpr2 receptors
response of wild-type CHO cells (wild-type CHO cells): did not induce any response
binding to other human receptors (other human receptors): no significant binding to other human receptors
emergence of sociability at 14 days, TC-OT-39 (BALB/cByJ mice [4]; 30 and 50 mg/kg IP, subchronic, 14 days after final injection): no evidence for the emergence of increased sociability at the 14-day time point
inverse agonism at Avpr1a [5]: appears to be an inverse agonist at Avpr1a
agonist character at human OXTR ([10]; calcium mobilization / Gq signaling): moderately potent full agonist at the human OXTR; also recorded: efficacy comparable to that of oxytocin for Gq signaling
EC50 (OXTR [11]; read-out: EC50, OXTR IP3 accumulation): 667 nM
agonist character, OXTR IP3 accumulation (OXTR [11]): partial agonist
agonist character for β-arrestin recruitment ([12]; enzyme fragment complementation assay, CHO cells): reduced efficacy for β-arrestin recruitment; also recorded: only a partial agonist of β-arrestin recruitment
EC50 (OXTR [13]; read-out: EC50, OXTR gene reporter assay): 33 nM
agonist character, OXTR gene reporter assay (OXTR [13]): full agonist
marble burying, BALB/cByJ, 50 mg/kg (BALB/cByJ mice [15]; TC-OT-39 50 mg/kg IP, 50 min before test, F(1,14)=6.18, p=0.0261): comparable decreases in marble burying
sedative-like effects, 75 mg/kg (BALB/cByJ mice [15]; TC-OT-39 75 mg/kg IP, acute, not further tested): overt sedative-like effects

Compound: Cc1cc(C(=O)N2Cc3cnn(C)c3Nc3ccccc32)ccc1CNC(=O)N1CCN(Cc2cc(O)cc(O)c2)CC1 [WAY-267464]
anxiolytic-like effects, rodent assays (rodents): comparable anxiolytic-like effects in rodent assays

Compound: Asn-Cyt-Pro-Leu-Gly-NH2 [OT(5-9)]
potency on avoidance learning relative to oxytocin (rats [16]): greater potency than oxytocin itself on specific aspects of avoidance learning in rats
sociability, OT(5-9) 1 mg/kg (BALB/cByJ mice [4]; 1 mg/kg IP, subchronic, Supplemental Fig. 4D, E): failed to reverse social deficits
sociability, OT(5-9) 2.0 mg/kg (BALB/cByJ mice [4]; 2.0 mg/kg IP, subchronic, Supplemental Fig. 5): failed to reveal prosocial efficacy
digging responses in marble-burying assay, oxytocin metabolites (BALB/cByJ mice [15]; 50 min before test): neither OT(4-9) nor OT(5-9) altered digging responses in the marble-burying assay

Compound: pGlu-Asn-Cyt-Pro-Leu-Gly-NH2 [OT(4-9)]
social recognition (rats [17]): oxytocin-like effects on social recognition in rats, dependent on dose
potency on avoidance learning relative to oxytocin (rats [16]): greater potency than oxytocin itself on specific aspects of avoidance learning in rats
entries, OT(4-9) 1.0 mg/kg (BALB/cByJ mice [4]; 1.0 mg/kg IP, subchronic, n=8): without changing entries during the test
proximity to stranger mouse, OT(4-9) 1.0 mg/kg (BALB/cByJ mice [4]; 1.0 mg/kg IP, subchronic, n=8, main effect of side F(1,14)=6.84, p=0.0204): significant social preference for proximity to the stranger mouse
time in side with stranger mouse, OT(4-9) 2.0 mg/kg, 24 hr and 12 days (BALB/cByJ mice [4]; 2.0 mg/kg IP, subchronic, 24-hr test F(1,21)=7.3, p=0.0133, 12-day test F(1,21)=4.85, p=0.039, n=8): significant preference for spending more time in the side with the stranger mouse at both time points
proximity to stranger mouse, OT(4-9) 2.0 mg/kg, 12 days (BALB/cByJ mice [4]; 2.0 mg/kg IP, subchronic, 12 days, F(1,21)=7.02, p=0.015, n=8): significant preference for proximity to the stranger mouse 12 days following the final injection
prosocial efficacy compared with oxytocin (BALB/cByJ mice [4]; OT(4-9) 2.0 mg/kg vs oxytocin 1.0 mg/kg, subchronic): prosocial efficacy similar to oxytocin
dose dependence of sociability, OT(4-9) (BALB/cByJ mice [4]; subchronic IP): only the higher doses (1.0 and 2.0 mg/kg) leading to increased sociability
entries during 3-chamber test (discussion) (BALB/cByJ mice [4]; subchronic IP): neither oxytocin nor OT(4-9) led to alterations in entries during the 3-chamber test
activity or exploration in open field, OT(4-9) (BALB/cByJ mice [18]; OT(4-9) 2.0 mg/kg IP immediately before 2-hr test, versus vehicle, n=9): no significant effects on activity or exploration in the open field
anxiolytic effects, acute OT(4-9) (BALB/cByJ mice [18]; acute, marble-burying assay and open field tests): lacked anxiolytic effects in the marble-burying assay and open field tests
digging responses in marble-burying assay, oxytocin metabolites (BALB/cByJ mice [15]; 50 min before test): neither OT(4-9) nor OT(5-9) altered digging responses in the marble-burying assay
